In PubChem BioAssay AID1645864 (Buhrlage Lab, Dana-Farber Cancer Institute and Novartis …, 2021) one finds IC50 data, which are given here for 90 compounds.

SMILES strings stand for the structures. Activity calls are given as the source filed them.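 Rule for the calls: active = maximal inhibition of USP17 at or above 30% in the confirmation dose-response, a value not among the printed readouts; inactive = the rest.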

The assay deals with Ubiquitin carboxyl-terminal hydrolase 17-like protein 5 (Homo sapiens) (UniProt A8MUK1). Put plainly: ubiquitin-specific protease 17 inhibitors, concentration series, biochemical, verification of primary actives (AID 1645864). The following applies: purified USP17, ubiquitin-rhodamine cleavage fluorescence, 3 h.
Sequence of Ubiquitin carboxyl-terminal hydrolase 17-like protein 5 (Homo sapiens) (A8MUK1 whole entry, looked up): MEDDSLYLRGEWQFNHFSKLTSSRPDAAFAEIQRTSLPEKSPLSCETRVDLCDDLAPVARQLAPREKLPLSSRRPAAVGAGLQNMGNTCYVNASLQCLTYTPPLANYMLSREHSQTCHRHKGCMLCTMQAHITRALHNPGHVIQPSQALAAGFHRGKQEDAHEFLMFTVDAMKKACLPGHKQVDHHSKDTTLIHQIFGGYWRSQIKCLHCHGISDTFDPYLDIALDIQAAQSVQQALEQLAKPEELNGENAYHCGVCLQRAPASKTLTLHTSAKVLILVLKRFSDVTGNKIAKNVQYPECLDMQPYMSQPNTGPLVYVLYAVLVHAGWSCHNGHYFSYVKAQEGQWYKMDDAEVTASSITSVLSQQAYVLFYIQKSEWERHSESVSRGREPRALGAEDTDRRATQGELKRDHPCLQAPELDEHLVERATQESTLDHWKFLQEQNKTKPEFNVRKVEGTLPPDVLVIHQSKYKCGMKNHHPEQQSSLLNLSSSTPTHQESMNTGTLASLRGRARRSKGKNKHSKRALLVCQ
As for `CC(c1ccccc1)n1c(-c2ccc(F)cc2)nc2c(c(=O)c3ccccc3n2C)c1=O` (stereo not given), the IC50 is 2.85 µM.
Take `N#Cc1cn(CC(=O)N2CCc3ccccc32)c2ccccc12`: the IC50 was 47.4 µM.
As for `O=C(Nc1nnc2n1CCCS2)c1cc2ccccc2o1`, the IC50 was > 50 µM (inactive).
Take `COc1ccc(-c2cc(N3CCC(NC(=O)c4ccccc4)C3)n[nH]2)cc1` (stereo not given): the IC50 was 20.8 µM.
The same measure for `CC1OC2CC(O)C1(O)C1=C2C(O)=C(C(N)=O)C(=N)C1=O` (stereo not given): 2.06 µM.
As to `O=C1CC(c2ccco2)Cc2[nH]c(=O)c(-c3nc(-c4ccc(Cl)cc4)cs3)cc21` (stereo not given), the IC50 was > 50 µM (inactive).
In the case of `Cc1ccc(C)c(CSC2=NCCN2C(=O)c2ccco2)c1`, the IC50 is > 50 µM (inactive).
The same measure for `Cc1nnc(Sc2cc(C(=O)NCCN3CCCC3)c3ccccc3n2)s1`: 30 µM; for `O=C(c1ccsc1)N1CCC2(C1)Nc1cccnc1NC2=NC1CCCC1` (stereo not given): > 50 µM (inactive).
For `Cc1ccc(-c2nc(Cn3cnc4ccccc4c3=O)cs2)cc1`, the IC50 is 7.32 µM.
With `COc1cc(C2SCC(=O)Nc3c2c(-c2ccccc2)nn3-c2ccccc2)cc(OC)c1OC` (stereo not given), the IC50 was > 50 µM (inactive).
The same measure for `CCc1cc2c(=O)[nH]c(Cc3ccc(OC)cc3)nc2s1`: 22.5 µM; for `N#Cc1ccc(COC(=O)c2ccc3ccccc3n2)cc1`: > 50 µM (inactive).
With `COc1ccc(NC(=O)c2ccc(Nc3nnc(C)c4ccccc34)cc2)cc1`, the IC50 is > 50 µM (inactive).
Then `COc1ccc(CN2CCCC23CCCN(C(=O)CCc2cccnc2)C3)cc1F` (stereo not given), with 33.6 µM.
The same measure for `Cc1c(C(=O)Nc2ccc(-c3nnc4n3CCCCC4)cc2)oc2c1ccc1ccccc12`: > 50 µM (inactive); for `N#Cc1cccc(NC(=O)Cn2cccc(-c3nc(-c4ccccc4)no3)c2=O)c1`: > 50 µM (inactive); for `COc1ccc(C(=O)Nc2sc3c(c2C(=O)NCc2cccnc2)CCCC3)cc1`: 6.19 µM.
For the compound `O=c1oc2ccccc2c2nn(-c3ccccn3)cc12`, the IC50 is 47.9 µM.
For `COc1ccc(C(=O)Nc2nc(-c3ccc4c(c3)NC(=O)CO4)c(C)s2)cc1OC`, the IC50 was 1.23 µM.
For the compound `Cc1cccc(COc2ccc(C3SCC(=O)Nc4n[nH]c(C)c43)cc2)c1` (stereo not given), the IC50 was 20.6 µM.
Regarding `Cc1cc(O)c2c3c(c(O)c4c(c13)O[C@@H](C)C4(C)C)C(=O)C2=O`, the IC50 is 24.5 µM.
Then `CN(C)S(=O)(=O)c1ccc(N2CCCC2)c(C(=O)Nc2ccc(-c3cn4ccsc4n3)cc2)c1`, with > 50 µM (inactive).
The same measure for `CCN(Cc1ccccc1)S(=O)(=O)c1ccc(C(=O)Nc2ccc3c(c2)OCCO3)cc1`: > 50 µM (inactive).
As for `CC(C)(C)c1ccc(C(=O)Nc2ccc(Cn3cncn3)cc2)cc1`, the IC50 is > 50 µM (inactive).
The same measure for `COc1ccc(-c2cc3c(=O)n(CC(=O)Nc4ccccc4F)ccn3n2)cc1OC`: 3.97 µM; for `O=C(Cn1c(=O)n(Cc2ccc(F)cc2)c(=O)c2ncccc21)Nc1ccccc1`: 45.2 µM.
As for `Cc1cc(C)c2sc(N(CCCn3ccnc3)C(=O)Cc3ccccc3)nc2c1`, the IC50 is 21.7 µM.
As for `Cc1cccc(CNC(=O)c2ccc(-c3nnc(-c4cccc(C)c4)o3)cc2)c1`, the IC50 is 5.03 µM.
The same measure for `Cc1cccc(-c2noc(CCn3c(=O)[nH]c4ccccc4c3=O)n2)c1`: 34.5 µM.
With `O=C(/C=C/c1ccccc1)N1CCN(C2=NS(=O)(=O)c3ccccc32)CC1`, the IC50 is > 50 µM (inactive).
The same measure for `CC(=O)O[C@H]1[C@]2(O)C[C@]34SS[C@](CO)(C(=O)N3[C@@H]2C[C@@]12O[C@@H](C)C(C)(C)C2=O)N(C)C4=O`: > 50 µM (inactive).
Then `Cc1cc(-c2ccnc3c(C#N)cnn23)c(C)s1`, with 28.6 µM; and `Cc1ccc(NC(=O)c2sc3ncn(CC(=O)N4CCN(c5ccccn5)CC4)c(=O)c3c2C)c(Br)c1`, with 35.1 µM.
The same measure for `CCOc1ccc2cc3c(nc2c1)OC(=O)N(Cc1ccc(C)o1)C3`: 2.44 µM.
Turning to `Cc1sc2ncn3c(=O)n(CC(=O)Nc4ccc(F)c(Cl)c4)nc3c2c1C`, the IC50 is 2.82 µM.
For `Nc1c(C(=O)NCCc2ccccc2)nnn1-c1ccc(F)cc1`, the concentration for half-maximal inhibition (IC50) is 40.2 µM.
Then `O=c1sc2ccccc2c(=O)n1Cc1cccc(C(F)(F)F)c1`, with > 50 µM (inactive); and `Cc1cccc(C(=O)Nc2cccc(SC(C(=O)Nc3ccc(O)c(C(=O)O)c3)c3ccccc3)c2)c1` (stereo not given), with 11.5 µM.
The same measure for `Cc1cc(Nc2ccc(C(=O)NCc3ccco3)cc2)n2nc(-c3cccnc3)nc2n1`: 34.1 µM.
The same measure for `Cc1nc(C(=O)NC2(O)C(=O)c3ccccc3C2=O)cs1`: 2.06 µM.
For the compound `COc1ccc2nc(SCC(=O)Nc3ccc(NC(C)=O)cc3)c(C)cc2c1`, the IC50 is 6.42 µM.
The same measure for `Cc1nn(-c2cccc(F)c2)c2c1C(C(=O)c1ccc(Cl)s1)CC(=O)N2` (stereo not given): 39.8 µM.
Then `Fc1ccc(Nc2nc(Nc3cccc(F)c3)nc3nccnc23)cc1`, with > 50 µM (inactive); and `O=C(Nc1ccc2c(c1)OCO2)c1cc(-c2cccnc2)n(-c2ccccc2)n1`, with 47.6 µM; and `O=c1c2cnc3nc(-c4cccnc4)nn3c2ccn1CCc1ccccc1`, with > 50 µM (inactive).
Turning to `Cc1cccc(NC(=O)CN2C(=O)COc3cc(S(=O)(=O)N4CCCC4)ccc32)c1C`, the 50% inhibitory concentration (IC50) was 26.4 µM.
As for `Cc1nc2sc(C(=O)Nc3ccccc3Br)c(N)c2c(C)c1C`, the IC50 was 1.12 µM.
Then `CCCc1cc(=O)oc2cc(OCC(=O)NCc3ccc(OC)cc3)ccc12`, with 9.4 µM; and `CC1=C[C@H]2N(c3ccc(C)cc31)[C@H](C(=O)c1cccs1)[C@@H](C(=O)c1ccc(F)cc1)[C@]21C(=O)Nc2ccccc21`, with > 50 µM (inactive).
The same measure for `COc1cccc(NC(=O)c2cnc3c(c2)c(=O)n(C)c(=O)n3C)c1`: 2.34 µM; for `Nc1ccccc1SC(CC(=O)c1ccc(Cl)cc1)c1ccsc1` (stereo not given): > 50 µM (inactive).
Then `COCCNC(=O)c1ccn(-c2ccc3ccc(-c4cnn(C)c4)cn23)n1`, with > 50 µM (inactive); and `Cc1ccccc1C(=O)Nc1ccc(Cc2ccc(NC(=O)c3ccccc3C)c(O)c2)cc1O`, with > 50 µM (inactive); and `O=C(Nc1cccc(-c2noc(C3CCC3)n2)c1)C1CC(=O)N(c2ccccc2)C1` (stereo not given), with 14.1 µM.
With `O=C(COC(=O)c1n[nH]c2ccccc12)Nc1ccc(N2CCCCC2)cc1`, the IC50 was 25.9 µM.
For the compound `COCCNC(=O)c1ccc(-c2ccc(N3CCCCC3)nc2)cc1`, the IC50 was 26.8 µM.
Then `O=C1N(Cc2ccc(F)cc2)CCN1c1ccc(C(F)(F)F)cn1`, with > 50 µM (inactive).
As to `COc1ccc(C(=O)CSc2ccc3nnc(CCNC(=O)c4ccc(OC)cc4)n3n2)cc1`, the IC50 was > 50 µM (inactive).
For `COc1ccccc1NC(=O)c1cc2c(C)nn(Cc3ccccc3)c2s1`, the IC50 is 29.9 µM.
Consider `CC(C)(C)C(=O)Nc1ccc(SCc2nnc(-c3ccccc3)o2)cc1`, for which the IC50 is > 50 µM (inactive).
Take `O=C(Nc1cccc(N2CCCC2=O)c1)c1cccc2cccnc12`: the IC50 was 21.9 µM.
The same measure for `CCn1ccc2c(cc(C(=O)Nc3cc(F)ccc3F)n2C)c1=O`: > 50 µM (inactive).
Take `CNC(=O)C1CN(C(=O)c2ccc(OC)cc2)CC12CCCC2` (stereo not given): the IC50 was > 50 µM (inactive).
The same measure for `O=C(Nc1ccccc1Br)c1ccn(COc2ccccc2F)n1`: 16.5 µM; for `COc1ccccc1C(=O)N1CCc2[nH]c3ccc(F)cc3c2C1`: > 50 µM (inactive); for `O=c1c2cnc(N3CCOCC3)nc2ccn1CCc1ccccc1`: 18 µM.
The same measure for `COc1ccc(Cl)c(NC(=O)C2CC(=O)Nc3cc(-c4ccccc4)nn32)c1` (stereo not given): 23.5 µM.
Then `O=C(c1ccco1)N1CCN=C1SCc1ccccc1F`, with > 50 µM (inactive); and `COc1ccc(CCNC(=O)c2noc3c2CCc2sccc2-3)cc1OC`, with 22 µM; and `COc1cccc(CC(=O)Nc2cc(F)c3nc(N4CCOCC4)ccc3c2)c1`, with > 50 µM (inactive).
In the case of `Cc1cc(C(=O)Nc2cc(C)n(Cc3ccc(Cl)cc3)n2)no1`, the IC50 was > 50 µM (inactive).
Then `O=C(/C=C/c1cnc2ccccc2c1)NCc1ccccc1`, with 43.4 µM; and `COc1ccc2c(c1)c(N1CCCC1=O)c(C(=O)NCc1cccc(OC)c1OC)n2C`, with > 50 µM (inactive).
Then `COc1cc(/C=C/C(=O)OCC(=O)Nc2ccc([N+](=O)[O-])cc2OC)ccc1O`, with 19.9 µM.
Consider `CCn1c(CNc2ccc(Cl)cc2)nnc1SCC(=O)Nc1ccccc1`, for which the IC50 was > 50 µM (inactive).
In the case of `Cc1cccc(NC(=O)Cn2c(=O)n(Cc3ccc(F)cc3)c(=O)c3sccc32)c1`, the IC50 was 5.8 µM.
The same measure for `N#Cc1ccc(Cn2nnc(-c3cccc(Cl)c3)n2)cc1`: > 50 µM (inactive).
With `CSc1ccccc1NC(=O)c1ccc(-n2cccn2)nn1`, the IC50 is 4.43 µM.
The same measure for `Cc1nc(-c2ccc(NC(=O)N3CCN(c4ccccn4)CC3)cc2)no1`: > 50 µM (inactive); for `CCOC(=O)Nc1ccc(N2CCn3c(nc4ccccc43)C2)cc1OC`: > 50 µM (inactive).
In the case of `c1ccc2c(c1)ccc1nnc(-c3ccc4c(c3)OCO4)n12`, the IC50 was > 50 µM (inactive).
Consider `CC(C)(C)C(=O)[C@@H]1[C@@H](C(=O)c2ccc3c(c2)OCO3)[C@@]2(C(=O)Nc3ccccc32)[C@H]2c3ccccc3C=CN12`, for which the IC50 was 31.3 µM.
Turning to `COc1ccc(CCNC(=O)c2ccc3ccccc3c2)cc1OC`, the IC50 is > 50 µM (inactive).
For the compound `CCOc1ccc2[nH]c3c(=O)n(CCc4ccc(OC)cc4)cnc3c2c1`, the IC50 is 4.41 µM.
Then `COc1ccc2ncc3c(-c4ccc(C)cc4)nn(-c4ccc(F)cc4)c3c2c1`, with 3.57 µM; and `Cc1ccc(-c2ccc(N3CCOCC3)nn2)cc1S(=O)(=O)N1CCOCC1`, with > 50 µM (inactive); and `Nc1nc(OCc2ccccc2)c2[nH]c(/C=C/c3cccs3)nc2n1`, with 32.5 µM.
Then `CCN(CC(=O)Nc1cc(C)on1)c1cccc2ccccc12`, with > 50 µM (inactive); and `O=C(Cn1c(=O)nc(-c2ccccc2)c2ccccc21)NCc1ccc2c(c1)OCO2`, with 27.8 µM.
